Results reported in US11518758B2, “Heteroarylaminopyrimidine amide autophagy inhibitors and methods of use thereof” (Deciphera Pharmaceuticals, LLC, priority 2019, dated 2022).

Legend:
[1] = biological target: T1, ULK2 kinase (Homo sapiens, UniProt Q8IYT8); assay: Biochemical assay for ULK2 (coupled pyruvate kinase/lactate dehydrogenase assay); conditions: 9.7 nM ULK2 (Eurofins), myelin basic protein, 1 mM ATP; read-out: ULK2.2
T1 construct: purchased Eurofins 14-772
Protocol: Example 176. Biochemical Assay for ULK2
(§1) Activity of ULK2 kinase was determined spectroscopically using a coupled pyruvate kinase/lactate dehydrogenase assay that continuously monitors the ATP hydrolysis-dependent oxidation of NADH (e.g., Schindler et al. Science (2000) 289: 1938-1942). Assays were conducted in 384-well plates (100 uL final volume) using 9.7 nM ULK2 (Eurofins CAT #14-772), 0.25 mg/mL myelin basic protein, 1.5 units pyruvate kinase, 2.1 units lactate dehydrogenase, 1 mM phosphoenol pyruvate, 0.28 mM NADH and 1 mM ATP in assay buffer (100 mM Tris, pH 7.5, 15 mM MgCl2, 0.5 mM DTT, 0.1% octyl-glucoside, 0.002% (w/v) BSA, and 0.002% Triton X-100). Inhibition of ULK2 was measured by adding serial diluted test compound (final assay concentration of 1% DMSO). A decrease in absorption at 340 nm was monitored continuously for 6 hours at 30° C. on a multi-mode microplate reader (BioTek). The reaction rate was calculated using the 2-3 h time frame. The reaction rate at each concentration of compound was converted to percent inhibition using controls (i.e. reaction with no test compound and reaction with a known inhibitor) and IC50 values were calculated by fitting a four-parameter sigmoidal curve to the data using Prism (GraphPad software).

[2] = biological target: T2, LRRK2 kinase (Homo sapiens, UniProt Q5S007); assay: Biochemical assay for LRRK2 (coupled pyruvate kinase/lactate dehydrogenase assay); conditions: 26.4 nM LRRK2 (residues 970-2528), 0.1 mM peptide substrate, 1 mM ATP
T2 construct: purchased Thermo Fisher
Protocol: Example 182. Biochemical Assay for LRRK2 (SEQ. ID NO. 4)
Activity of LRRK2 kinase was determined spectroscopically using a coupled pyruvate kinase/lactate dehydrogenase assay that continuously monitors the ATP hydrolysis-dependent oxidation of NADH (e.g., Schindler et al. Science (2000) 289: 1938-1942). Assays were conducted in 384-well plates (100 uL final volume) using 26.4 nM LRRK2 (Thermo Fisher), 0.1 mM peptide substrate (RLGRDKYKTLRQIRQ (SEQ ID NO: 6)), 1.5 units pyruvate kinase, 2.1 units lactate dehydrogenase, 1 mM phosphoenol pyruvate, 0.28 mM NADH and 1 mM ATP in assay buffer (100 mM Tris, pH 7.5, 15 mM MgCl2, 0.5 mM DTT, 0.004% (w/v) BSA, and 0.004% Triton X-100). Inhibition of LRRK2 was measured by adding serial diluted test compound (final assay concentration of 1% DMSO). A decrease in absorption at 340 nm was monitored continuously for 6 hours at 30° C. on a multi-mode microplate reader (BioTek). The reaction rate was calculated using the 2-3 h time frame. The reaction rate at each concentration of compound was converted to percent inhibition using controls (i.e. reaction with no test compound and reaction with a known inhibitor) and IC50 values were calculated using software routines in Prism (GraphPad software).

[3] = biological target: T3, ULK1 kinase (Homo sapiens, UniProt O75385); assay: Biochemical assay for ULK1.2 (coupled pyruvate kinase/lactate dehydrogenase assay); conditions: 19 nM ULK1 (Eurofins), myelin basic protein, 1 mM ATP
T3 construct: purchased Eurofins 14-959
T3 sequence (O75385 with tags, fused parts or gaps): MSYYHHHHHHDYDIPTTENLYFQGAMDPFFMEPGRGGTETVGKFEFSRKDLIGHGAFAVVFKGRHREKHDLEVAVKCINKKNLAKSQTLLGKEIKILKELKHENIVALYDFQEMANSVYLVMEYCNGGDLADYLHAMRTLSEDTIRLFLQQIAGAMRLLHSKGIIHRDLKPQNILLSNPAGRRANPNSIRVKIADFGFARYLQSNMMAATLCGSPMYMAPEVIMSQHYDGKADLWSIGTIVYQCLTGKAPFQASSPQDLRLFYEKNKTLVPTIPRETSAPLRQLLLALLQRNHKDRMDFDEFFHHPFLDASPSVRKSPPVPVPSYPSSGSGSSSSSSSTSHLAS
Protocol: Example 174. Biochemical Assay for ULK1.2
as §1, with “ULK1” for “ULK2”, “19” for “9.7”, “#14-959),” for “#14-772),”

[4] = tested on: phospho-Serine 318 ATG13 (pATG13), ULK kinase substrate, in A549 (KRAS mutant) cells; assay: pATG13 levels of mutant KRas A549 cells after treatment with ULK inhibitors in combination with trametinib (ELISA); type: cell-based, human; conditions: with 250 nM trametinib
Protocol: Example 177. Cellular Inhibition of ULK Kinase Substrate ATG13 Protein pATG13 Levels of Mutant KRas A549 Cells after Treatment with ULK Inhibitors in Combination with Trametinib
A549 (KRAS mutant) human lung cancer cells (6,000 cells/well) were added to a 384-well tissue-culture treated plate in 50 μL of pre-warmed DMEM medium supplemented with 10% characterized fetal bovine serum (Invitrogen, Carlsbad, Calif.), 100 units/mL penicillin G, and 100 μg/mL streptomycin and allowed to grow overnight at 37° C., 5% CO2, and 95% humidity. The following day, 10 μL of media containing trametinib or DMSO as a control was added to wells. The final concentration of trametinib in wells was 250 nM. A dose response of a test compound (0.6 μL per well) was added. DMSO (0.6 μL) was added to control wells. The plate was briefly shaken to mix wells and then incubated at 37° C. overnight. The next day, the media was aspirated and cells were washed with Dulbecco's Phosphate Buffered Saline (Gibco). Cells were lysed using MPER lysis buffer (Pierce, Rockford, Ill.) containing Halt Phosphatase and Protease Inhibitors (Pierce, Rockford, Ill.) and Phosphatase inhibitor cocktail 2 (Sigma, St. Louis, Mo.) at 4° C. for 10 minutes with shaking.
Cellular levels of phospho-Serine 318 ATG13 (pATG13) were measured via an ELISA method. Total ATG13 Antibody (Cell Signaling Cat #13273) was used to coat the wells. The plate was incubated at 4° C. overnight and washed with ELISA wash buffer (Biolegend Cat #421601). The wells were then blocked with assay diluent (Biolegend Cat #421203) for 1 hour at room temperature. Plate wells were washed with ELISA wash buffer. Cell lysate was added to wells and incubated at room temperature for 2 hours. Plate wells were washed with ELISA wash buffer. Biotinylated pS318-ATG13 antibody (Rockland Immunochemicals Cat #600-401-C49) was diluted in assay diluent and added to each well and incubated at room temperature for 1 hour. Plate wells were washed with ELISA wash buffer. Streptavidin linked to horseradish peroxidase (Thermo Fisher Cat #21140) was diluted in assay diluent and added to each well and incubated at room temperature for 1 hour. Plate wells were washed with ELISA wash buffer. High sensitivity TMB substrate (Biolegend Cat #421101) was added to each well and incubated at room temperature for 20 minutes. The reaction was stopped with 2N Sulfuric Acid. The plate was analyzed at on a plate reader measuring absorbance at 450 nm and 540 nm (background). Signal was calculated by first subtracting the background absorbance at 540 nm from the absorbance at 450 nm for each well. Next, the background corrected absorbance at 450 nm from blank wells was subtracted from test wells. Data was compared to control wells to determine % ATG13 phosphorylation. GraphPad Prism was used to calculate IC50 values.

T2 sequence (Q5S007 with tags, fused parts or gaps): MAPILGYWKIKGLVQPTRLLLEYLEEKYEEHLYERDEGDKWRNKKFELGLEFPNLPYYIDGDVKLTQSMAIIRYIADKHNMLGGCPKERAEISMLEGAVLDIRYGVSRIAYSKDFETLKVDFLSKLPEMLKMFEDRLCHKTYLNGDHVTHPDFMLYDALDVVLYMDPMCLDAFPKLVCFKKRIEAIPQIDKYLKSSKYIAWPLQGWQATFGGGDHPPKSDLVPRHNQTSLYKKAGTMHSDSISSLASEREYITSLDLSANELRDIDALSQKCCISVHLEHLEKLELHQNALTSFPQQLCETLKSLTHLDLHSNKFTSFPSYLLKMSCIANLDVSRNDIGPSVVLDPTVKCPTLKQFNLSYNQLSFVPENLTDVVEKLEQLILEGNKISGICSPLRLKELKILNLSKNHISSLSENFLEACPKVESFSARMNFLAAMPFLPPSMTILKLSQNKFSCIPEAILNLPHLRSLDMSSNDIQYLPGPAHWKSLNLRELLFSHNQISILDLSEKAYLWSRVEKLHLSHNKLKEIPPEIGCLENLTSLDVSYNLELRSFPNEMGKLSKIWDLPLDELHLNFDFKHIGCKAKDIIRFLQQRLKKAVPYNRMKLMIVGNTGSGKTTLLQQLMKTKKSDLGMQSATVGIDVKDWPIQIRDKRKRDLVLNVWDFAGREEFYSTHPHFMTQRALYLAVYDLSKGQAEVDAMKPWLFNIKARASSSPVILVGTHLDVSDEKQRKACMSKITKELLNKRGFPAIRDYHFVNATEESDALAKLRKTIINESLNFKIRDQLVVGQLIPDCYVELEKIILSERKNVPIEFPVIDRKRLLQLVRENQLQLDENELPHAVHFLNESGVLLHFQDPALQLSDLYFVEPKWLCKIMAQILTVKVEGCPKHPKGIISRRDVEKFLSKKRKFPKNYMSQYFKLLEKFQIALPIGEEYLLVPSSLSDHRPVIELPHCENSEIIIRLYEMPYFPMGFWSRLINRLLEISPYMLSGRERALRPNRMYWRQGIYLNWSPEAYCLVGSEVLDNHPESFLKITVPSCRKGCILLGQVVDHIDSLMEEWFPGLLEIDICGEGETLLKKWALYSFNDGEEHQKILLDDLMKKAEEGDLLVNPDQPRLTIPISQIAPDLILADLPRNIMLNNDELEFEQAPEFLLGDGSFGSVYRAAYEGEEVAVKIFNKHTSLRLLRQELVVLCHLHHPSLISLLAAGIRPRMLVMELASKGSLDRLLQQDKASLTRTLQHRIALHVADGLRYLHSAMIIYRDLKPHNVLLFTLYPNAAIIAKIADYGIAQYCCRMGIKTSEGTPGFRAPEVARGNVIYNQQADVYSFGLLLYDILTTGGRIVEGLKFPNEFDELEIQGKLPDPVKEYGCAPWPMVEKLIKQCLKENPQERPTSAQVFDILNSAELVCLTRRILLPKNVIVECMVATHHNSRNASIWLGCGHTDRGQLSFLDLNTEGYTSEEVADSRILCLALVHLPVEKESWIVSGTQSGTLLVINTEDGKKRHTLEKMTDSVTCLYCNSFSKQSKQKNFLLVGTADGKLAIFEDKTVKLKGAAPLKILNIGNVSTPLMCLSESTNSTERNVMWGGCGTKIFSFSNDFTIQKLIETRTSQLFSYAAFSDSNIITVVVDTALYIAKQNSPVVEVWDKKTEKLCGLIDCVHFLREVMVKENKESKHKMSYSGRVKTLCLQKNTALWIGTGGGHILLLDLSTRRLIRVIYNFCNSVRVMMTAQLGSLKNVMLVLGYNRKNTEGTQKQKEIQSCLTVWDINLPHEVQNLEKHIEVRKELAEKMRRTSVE
T1 sequence (Q8IYT8 with tags, fused parts or gaps): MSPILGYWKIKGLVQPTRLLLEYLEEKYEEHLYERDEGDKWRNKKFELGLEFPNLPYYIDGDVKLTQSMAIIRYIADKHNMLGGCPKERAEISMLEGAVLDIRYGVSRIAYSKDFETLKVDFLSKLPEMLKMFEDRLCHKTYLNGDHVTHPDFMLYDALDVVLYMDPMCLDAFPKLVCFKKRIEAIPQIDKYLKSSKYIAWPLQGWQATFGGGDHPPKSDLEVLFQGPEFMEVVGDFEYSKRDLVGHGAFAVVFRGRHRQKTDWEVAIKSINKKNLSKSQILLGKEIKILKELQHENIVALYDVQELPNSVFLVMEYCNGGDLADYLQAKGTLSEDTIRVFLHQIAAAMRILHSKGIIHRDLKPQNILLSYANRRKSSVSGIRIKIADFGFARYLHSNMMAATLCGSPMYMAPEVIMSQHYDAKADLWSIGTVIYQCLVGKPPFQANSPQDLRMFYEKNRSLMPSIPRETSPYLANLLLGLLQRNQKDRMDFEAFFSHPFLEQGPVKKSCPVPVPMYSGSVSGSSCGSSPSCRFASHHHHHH

| SMILES | IC50 [1] [nM] | IC50 [2] [nM] | IC50 [3] [nM] | IC50 [4] [nM] |
| --- | --- | --- | --- | --- |
| CN1CCC(n2cc(Nc3ncc(C4CC4)c(NCCCN4CCCCC4=O)n3)cn2)CC1 [Example 1] | > 500 | > 600 | 25 to 100 |  |
| CN1CCC(n2cc(Nc3ncc(Cl)c(NCCCN4CCCCC4=O)n3)cn2)CC1 [Example 2] | 25 to 100 |  | 1 to 25 |  |
| O=C1CCCCN1CCCNc1nc(Nc2cnn(C3CCNCC3)c2)ncc1Cl [Example 4] | 25 to 100 |  | 1 to 25 | > 600 |
| CCN1CC[C@@H](n2cc(Nc3ncc(C(F)(F)F)c(NCCCN4CCCCC4=O)n3)c(C)n2)C1 [Example 25] | 25 to 100 |  | 1 to 25 | 10 to 100 |
| Cc1nn(C2CCNCC2)cc1Nc1ncc(Br)c(NCCCN2CCCCC2=O)n1 [Example 26] | 25 to 100 | 300 to 600 | 1 to 25 | > 600 |
| Cc1nn(C2CCNCC2)cc1Nc1ncc(Cl)c(NCCCN2CCCCC2=O)n1 [Example 27] | 100 to 500 |  | 25 to 100 | > 600 |
| CCc1nn(C2CCNCC2)cc1Nc1ncc(Br)c(NCCCN2CCCCC2=O)n1 [Example 41] | 100 to 500 |  | 25 to 100 |  |
| Cc1nn(C2CCN(C)CC2)cc1Nc1ncc(Br)c(NCCCN2CCCCC2=O)n1 [Example 51] | 25 to 100 |  | 1 to 25 | > 600 |
| O=C1CCCCCN1CCCNc1nc(Nc2cnn(C3CCNCC3)c2)ncc1C(F)(F)F [Example 77] | 1 to 25 |  | 1 to 25 | 100 to 300 |
| CN1CCC(n2cc(Nc3ncc(C(F)(F)F)c(NCCCN4CCCCCC4=O)n3)cn2)CC1 [Example 78] | 1 to 25 |  | 1 to 25 | 10 to 100 |
| Cc1nn(C2CCN(C)CC2)cc1Nc1ncc(Cl)c(NCCCN2CCCCCC2=O)n1 [Example 80, 1-(3-((5-chloro-2-((3-methyl-1-(1-methylpiperidin-4-yl)-1H-pyrazol-4-yl)amino)pyrimidin-4-yl)amino)propyl)azepan-2-one] | 100 to 500 | 100 to 300 | 1 to 25 | 10 to 100 |
| CN1CCC(n2cc(Nc3ncc(Cl)c(NCCCN4CCCCCC4=O)n3)cn2)CC1 [Example 81] | 1 to 25 |  | 1 to 25 | 10 to 100 |
| Cc1nn(C2CCNCC2)cc1Nc1ncc(C(F)(F)F)c(NCCCN2CCCCCC2=O)n1 [Example 83, 1-(3-((2-((3-methyl-1-(piperidin-4-yl)-1H-pyrazol-4-yl)amino)-5-(trifluoromethyl)pyrimidin-4-yl)amino)propyl)azepan-2-one] | 1 to 25 |  | 1 to 25 | 100 to 300 |
| Cc1nn(C2CCNCC2)cc1Nc1ncc(Cl)c(NCCCN2CCCCCC2=O)n1 [Example 86] | 100 to 500 |  | 25 to 100 | > 600 |
| Cc1nn(C2CCN(C3COC3)CC2)cc1Nc1ncc(C(F)(F)F)c(NCCCN2CCCCCC2=O)n1 [Example 91] | 100 to 500 |  | 1 to 25 | 300 to 600 |
| Cc1nn(C2CCNCC2)cc1Nc1ncc(C(F)(F)F)c(NCCCN2CCCC2=O)n1 [Example 103] | 25 to 100 |  | 25 to 100 | > 600 |
| Cc1nn(C2CCN(C)CC2)cc1Nc1ncc(C(F)(F)F)c(NCCCN2CCCC2=O)n1 [Example 104] | 25 to 100 | 300 to 600 | 25 to 100 | > 600 |
| CN1CCC(n2cc(Nc3ncc(C4CC4)c(NCCCN4CCN(C)C4=O)n3)cn2)CC1 [Example 147] | > 500 | > 600 | 100 to 500 |  |
| CN1CCC(n2cc(Nc3ncc(C(F)(F)F)c(NCCCN4CCCC4=O)n3)cn2)CC1 [Example 166] | 25 to 100 |  | 1 to 25 | 100 to 300 |
| CCN1CC[C@H](n2cc(Nc3ncc(C(F)(F)F)c(NCCCN4CCCC4=O)n3)c(C)n2)C1 [Example 168] |  | > 600 | 100 to 500 |  |
| CC(C)CN1CC(n2cc(Nc3ncc(C(F)(F)F)c(NCCCN4CCCC4=O)n3)cn2)C1 [Example 170] |  | 300 to 600 | 100 to 500 |  |
